System: MV-4-11 cells
Test: Gene expression microarray analysis (Affymetrix PrimeView) and GSEA
Type: cell-based, human
Design: RFU PODN (11730768_x_at) / Fold change /veh PODN (11730768_x_at) / RFU LINC00158 (11744669_a_at) / Fold change /veh LINC00158 (11744669_a_at) / RFU DUSP10 (11751237_a_at) / Fold change /veh DUSP10 (11751237_a_at) / RFU ID3 (11757404_x_at) / Fold change /veh ID3 (11757404_x_at) / RFU PLEKHG5 (11737974_s_at) / Fold change /veh PLEKHG5 (11737974_s_at) / RFU LRRC4B (11730491_at) / Fold change /veh LRRC4B (11730491_at) / RFU GIMAP4 (11747438_a_at) / Fold change /veh GIMAP4 (11747438_a_at) / RFU KRT8 (11758183_x_at) / Fold change /veh KRT8 (11758183_x_at) / RFU CNN1 (11734310_a_at) / Fold change /veh CNN1 (11734310_a_at) / RFU VPS37D (11726825_at) / Fold change /veh VPS37D (11726825_at) / RFU C10orf10 (11716522_x_at) / Fold change /veh C10orf10 (11716522_x_at) / RFU KIR2DL2 /// KIR2DL4 /// KIR2DL5A /// KIR2DL5B /// KIR2DS1 /// KIR2DS2 /// KIR2DS3 /// KIR2DS4 /// KIR3DL3 /// KIR3DL3 /// KIR3DS1 (11738374_at) / Fold change /veh KIR2DL2 /// KIR2DL4 /// KIR2DL5A /// KIR2DL5B /// KIR2DS1 /// KIR2DS2 /// KIR2DS3 /// KIR2DS4 /// KIR3DL3 /// KIR3DL3 /// KIR3DS1 (11738374_at) / RFU C1QL1 (11718748_at) / Fold change /veh C1QL1 (11718748_at) / RFU TMPRSS4 (11747572_a_at) / Fold change /veh TMPRSS4 (11747572_a_at) / RFU HAMP (11756126_x_at) / Fold change /veh HAMP (11756126_x_at) / RFU RNFT2 (11725882_a_at) / Fold change /veh RNFT2 (11725882_a_at) / RFU NR4A2 (11747474_a_at) / Fold change /veh NR4A2 (11747474_a_at) / RFU ABCC12 (11746883_a_at) / Fold change /veh ABCC12 (11746883_a_at) / RFU TMEM136 (11760407_x_at) / Fold change /veh TMEM136 (11760407_x_at) / RFU CLDN22 /// WWC2 (11732394_at) / Fold change /veh CLDN22 /// WWC2 (11732394_at) / RFU HLA-DPB1 (11760878_x_at) / Fold change /veh HLA-DPB1 (11760878_x_at) / RFU SPINT1 (11716480_a_at) / Fold change /veh SPINT1 (11716480_a_at) / RFU GAP43 (11754022_s_at) / Fold change /veh GAP43 (11754022_s_at) / RFU A4GNT (11735810_at) / Fold change /veh A4GNT (11735810_at) / RFU PRB3 (11715151_x_at) / Fold change /veh PRB3 (11715151_x_at) / RFU TUBB4B (11761932_at) / Fold change /veh TUBB4B (11761932_at) / RFU CAPN14 (11732068_a_at) / Fold change /veh CAPN14 (11732068_a_at) / RFU TMCC2 (11721928_a_at) / Fold change /veh TMCC2 (11721928_a_at) / RFU IRGQ (11745062_a_at) / Fold change /veh IRGQ (11745062_a_at) / RFU FAM174B (11720279_a_at) / Fold change /veh FAM174B (11720279_a_at) / RFU TMPRSS4 (11748680_a_at) / Fold change /veh TMPRSS4 (11748680_a_at) / RFU FAM212B (11763350_a_at) / Fold change /veh FAM212B (11763350_a_at) / RFU PLEKHG5 (11743358_a_at) / Fold change /veh PLEKHG5 (11743358_a_at) / RFU ZSCAN30 (11745921_a_at) / Fold change /veh ZSCAN30 (11745921_a_at) / RFU CMKLR1 (11741424_a_at) / Fold change /veh CMKLR1 (11741424_a_at) / RFU LOC101060620 /// MAPK8IP1 (11723275_at) / Fold change /veh LOC101060620 /// MAPK8IP1 (11723275_at) / RFU SPTSSB (11747773_x_at) / Fold change /veh SPTSSB (11747773_x_at) / RFU PRSS12 (11739890_at) / Fold change /veh PRSS12 (11739890_at) / RFU BIN1 (11741810_x_at) / Fold change /veh BIN1 (11741810_x_at) / RFU WNT11 (11732464_a_at) / Fold change /veh WNT11 (11732464_a_at) / RFU C10orf10 (11716521_a_at) / Fold change /veh C10orf10 (11716521_a_at) / RFU C5orf56 (11738089_at) / Fold change /veh C5orf56 (11738089_at) / RFU CYB561 (11721691_x_at) / Fold change /veh CYB561 (11721691_x_at) / RFU ANKRD19P (11752326_a_at) / Fold change /veh ANKRD19P (11752326_a_at) / RFU OR2T12 /// OR2T33 /// OR2T8 (11738714_s_at) / Fold change /veh OR2T12 /// OR2T33 /// OR2T8 (11738714_s_at) / RFU VCAN (11748164_a_at) / Fold change /veh VCAN (11748164_a_at) / RFU JSRP1 (11732532_at) / Fold change /veh JSRP1 (11732532_at) / RFU KRTAP10-11 (11738290_x_at) / Fold change /veh KRTAP10-11 (11738290_x_at) / RFU MYO3A (11730013_a_at) / Fold change /veh MYO3A (11730013_a_at) / RFU EBF3 (11725865_a_at) / Fold change /veh EBF3 (11725865_a_at) / RFU CAMK2N1 (11719241_x_at) / Fold change /veh CAMK2N1 (11719241_x_at) / RFU C5orf56 (11738088_a_at) / Fold change /veh C5orf56 (11738088_a_at) / RFU OLFML3 (11715873_a_at) / Fold change /veh OLFML3 (11715873_a_at) / RFU LOC100653217 /// NTM (11731650_a_at) / Fold change /veh LOC100653217 /// NTM (11731650_a_at) / RFU MAPK11 (11762145_a_at) / Fold change /veh MAPK11 (11762145_a_at) / RFU FIZ1 (11724087_x_at) / Fold change /veh FIZ1 (11724087_x_at) / RFU OASL (11726364_x_at) / Fold change /veh OASL (11726364_x_at) / RFU SOX15 (11748057_x_at) / Fold change /veh SOX15 (11748057_x_at) / RFU CD79A (11719716_a_at) / Fold change /veh CD79A (11719716_a_at) / RFU HIST1H1D (11736915_at) / Fold change /veh HIST1H1D (11736915_at) / RFU CASKIN2 (11723855_a_at) / Fold change /veh CASKIN2 (11723855_a_at) / RFU LOC730098 (11760151_x_at) / Fold change /veh LOC730098 (11760151_x_at) / RFU OR4N2 (11742367_at) / Fold change /veh OR4N2 (11742367_at) / RFU PRRT2 (11749266_a_at) / Fold change /veh PRRT2 (11749266_a_at) / RFU SNX32 (11753110_a_at) / Fold change /veh SNX32 (11753110_a_at) / RFU CDHR5 (11726645_a_at) / Fold change /veh CDHR5 (11726645_a_at) / RFU RCAN1 (11760418_a_at) / Fold change /veh RCAN1 (11760418_a_at) / RFU FAM167A (11723789_a_at) / Fold change /veh FAM167A (11723789_a_at) / RFU FAM26E (11764081_at) / Fold change /veh FAM26E (11764081_at) / RFU ISYNA1 (11749810_s_at) / Fold change /veh ISYNA1 (11749810_s_at) / RFU ACY1 (11761880_at) / Fold change /veh ACY1 (11761880_at) / RFU 11764098_at / Fold change /veh 11764098_at / RFU SAMD14 (11745864_x_at) / Fold change /veh SAMD14 (11745864_x_at) / RFU NPB (11741838_a_at) / Fold change /veh NPB (11741838_a_at) / RFU TMPRSS6 (11731388_a_at) / Fold change /veh TMPRSS6 (11731388_a_at) / RFU KRTAP10-2 (11738614_at) / Fold change /veh KRTAP10-2 (11738614_at) / RFU ARHGAP8 /// PRR5-ARHGAP8 (11727945_x_at) / Fold change /veh ARHGAP8 /// PRR5-ARHGAP8 (11727945_x_at) / RFU KRTAP5-7 /// NADSYN1 (11734609_at) / Fold change /veh KRTAP5-7 /// NADSYN1 (11734609_at) / RFU RASL12 (11751679_a_at) / Fold change /veh RASL12 (11751679_a_at) / RFU CDKN2B (11736163_a_at) / Fold change /veh CDKN2B (11736163_a_at) / RFU PRF1 (11729649_at) / Fold change /veh PRF1 (11729649_at) / RFU, ZNF638 /// ZNF638-IT1 / Fold change vs veh, ZNF638 /// ZNF638-IT1 / RFU, PANK3 / Fold change vs veh, PANK3 / RFU, SH3YL1 / Fold change vs veh, SH3YL1 / RFU, ZEB2 / Fold change vs veh, ZEB2 / RFU, NRIP1 / Fold change vs veh, NRIP1 / RFU, PTTG1IP / Fold change vs veh, PTTG1IP / RFU, CAPN2 / Fold change vs veh, CAPN2 / RFU, MED14 / Fold change vs veh, MED14 / RFU, SNORA58 / Fold change vs veh, SNORA58 / RFU, C1orf63 / Fold change vs veh, C1orf63 / RFU, LRRFIP1 / Fold change vs veh, LRRFIP1 / RFU, NDUFAF7 / Fold change vs veh, NDUFAF7 / RFU, SLC12A2 / Fold change vs veh, SLC12A2 / RFU, IBTK / Fold change vs veh, IBTK / RFU, ESF1 / Fold change vs veh, ESF1 / Fold change vs veh, TMEM50B / RFU, TAOK1 / Fold change vs veh, TAOK1 / RFU, ACBD3 / Fold change vs veh, ACBD3 / RFU, TMA16 / Fold change vs veh, TMA16 / RFU, RWDD3 / Fold change vs veh, RWDD3 / RFU, BCAT1 / Fold change vs veh, BCAT1 / RFU, EDEM3 / Fold change vs veh, EDEM3 / RFU, TMEM33 / Fold change vs veh, TMEM33 / RFU, WDR75 / Fold change vs veh, WDR75 / RFU, AHCTF1 / Fold change vs veh, AHCTF1 / RFU, TFRC / Fold change vs veh, TFRC / RFU, ZDHHC17 / Fold change vs veh, ZDHHC17 / RFU, NOM1 / Fold change vs veh, NOM1 / RFU, ARL8B / Fold change vs veh, ARL8B / RFU, ZBTB11 / Fold change vs veh, ZBTB11 / RFU, TAMM41 / Fold change vs veh, TAMM41 / RFU, KIAA1704 /// LOC100996395 / Fold change vs veh, KIAA1704 /// LOC100996395 / RFU, ING1 / Fold change vs veh, ING1 / RFU, TRMT61B / Fold change vs veh, TRMT61B / RFU, FUBP3 / Fold change vs veh, FUBP3 / RFU, TP53 / Fold change vs veh, TP53 / RFU, TNKS2 / Fold change vs veh, TNKS2 / RFU, ZFP14 / Fold change vs veh, ZFP14 / RFU, ACTR2 / Fold change vs veh, ACTR2 / RFU, PPP3R1 / Fold change vs veh, PPP3R1 / RFU, PIK3R1 / Fold change vs veh, PIK3R1 / RFU, HNRNPA1 / Fold change vs veh, HNRNPA1 / RFU, RNF170 / Fold change vs veh, RNF170 / RFU, ZNF28 / Fold change vs veh, ZNF28 / RFU, RNGTT / Fold change vs veh, RNGTT / RFU, OGT / Fold change vs veh, OGT / RFU, BRD1 / Fold change vs veh, BRD1 / RFU, MARS / Fold change vs veh, MARS / RFU, ZNF655 / Fold change vs veh, ZNF655 / RFU, FAHD1 / Fold change vs veh, FAHD1 / RFU, BDP1 / Fold change vs veh, BDP1 / RFU, LRRCC1 / Fold change vs veh, LRRCC1 / RFU, ARID1A / Fold change vs veh, ARID1A / RFU, ZNF146 / Fold change vs veh, ZNF146 / RFU, ZNF330 / Fold change vs veh, ZNF330 / RFU, GPN3 / Fold change vs veh, GPN3 / RFU, C9orf123 / Fold change vs veh, C9orf123 / RFU, N4BP2L2 / Fold change vs veh, N4BP2L2 / RFU, ARFIP1 / Fold change vs veh, ARFIP1 / RFU, FAM179B / Fold change vs veh, FAM179B / RFU, BCL10 / Fold change vs veh, BCL10 / RFU, UHRF1BP1L / Fold change vs veh, UHRF1BP1L / RFU, BET1 / Fold change vs veh, BET1 / RFU, CNOT2 / Fold change vs veh, CNOT2 / RFU, ZNF268 / Fold change vs veh, ZNF268 / Fold change vs veh, ZNF507 / RFU, DGCR2 / Fold change vs veh, DGCR2 / RFU, WDSUB1 / Fold change vs veh, WDSUB1 / Fold change vs veh, HSP90B1 /// MIR3652 / RFU, ADSS / Fold change vs veh, ADSS / RFU, GK / Fold change vs veh, GK / RFU, ZNF148 / Fold change vs veh, ZNF148 / RFU, TAF9 / Fold change vs veh, TAF9 / RFU, SLC1A5 / Fold change vs veh, SLC1A5 / RFU, SLMO2 / Fold change vs veh, SLMO2 / RFU, ABCC4 / Fold change vs veh, ABCC4 / RFU, LOC101060439 /// RAP1B / Fold change vs veh, LOC101060439 /// RAP1B / RFU, RFX7 / Fold change vs veh, RFX7 / RFU, GTPBP10 / Fold change vs veh, GTPBP10 / RFU, CNEP1R1 / Fold change vs veh, CNEP1R1 / RFU, BIVM-ERCC5 /// ERCC5 / Fold change vs veh, BIVM-ERCC5 /// ERCC5 / RFU, ILF3 / Fold change vs veh, ILF3 / RFU 11762660_at / Fold change /veh 11762660_at / RFU VCAN (11757783_s_at) / Fold change /veh VCAN (11757783_s_at) / RFU DDX43 (11728927_at) / Fold change /veh DDX43 (11728927_at) / RFU KRT8 (11758188_x_at) / Fold change /veh KRT8 (11758188_x_at) / RFU NKD1 (11759106_at) / Fold change /veh NKD1 (11759106_at) / RFU SRD5A1 (11742802_a_at) / Fold change /veh SRD5A1 (11742802_a_at) / RFU TPSAB1 /// TPSB2 (11721975_s_at) / Fold change /veh TPSAB1 /// TPSB2 (11721975_s_at) / RFU GSTM3 (11746129_a_at) / Fold change /veh GSTM3 (11746129_a_at) / RFU IL23R (11737362_x_at) / Fold change /veh IL23R (11737362_x_at) / RFU TMEM51 (11727254_a_at) / Fold change /veh TMEM51 (11727254_a_at) / RFU PIWIL2 (11732686_x_at) / Fold change /veh PIWIL2 (11732686_x_at) / RFU ORM1 (11744905_x_at) / Fold change /veh ORM1 (11744905_x_at) / RFU CCDC152 (11743942_at) / Fold change /veh CCDC152 (11743942_at) / RFU ECM1 (11717891_a_at) / Fold change /veh ECM1 (11717891_a_at) / RFU IL23R (11748794_a_at) / Fold change /veh IL23R (11748794_a_at) / RFU TNFAIP8L3 (11732012_x_at) / Fold change /veh TNFAIP8L3 (11732012_x_at) / RFU MBOAT4 (11741988_at) / Fold change /veh MBOAT4 (11741988_at) / RFU 11764193_at / Fold change /veh 11764193_at / RFU TMEM53 (11763286_at) / Fold change /veh TMEM53 (11763286_at) / RFU MAGEB2 (11727129_at) / Fold change /veh MAGEB2 (11727129_at) / RFU TMEM200A (11744735_a_at) / Fold change /veh TMEM200A (11744735_a_at) / RFU CCDC152 (11751479_a_at) / Fold change /veh CCDC152 (11751479_a_at) / RFU FAM211A (11726209_a_at) / Fold change /veh FAM211A (11726209_a_at) / RFU RGS16 (11746705_a_at) / Fold change /veh RGS16 (11746705_a_at) / RFU VCAN (11755009_s_at) / Fold change /veh VCAN (11755009_s_at) / RFU RHOB (11743442_s_at) / Fold change /veh RHOB (11743442_s_at) / RFU RGS16 (11720943_a_at) / Fold change /veh RGS16 (11720943_a_at) / RFU RGS16 (11720944_at) / Fold change /veh RGS16 (11720944_at) / RFU, VPS4B / Fold change vs veh, VPS4B / RFU, CREB1 / Fold change vs veh, CREB1 / RFU, DNAJC13 / Fold change vs veh, DNAJC13 / RFU, GNAQ / Fold change vs veh, GNAQ / RFU, CDK5R1 / Fold change vs veh, CDK5R1 / RFU, ZRANB3 / Fold change vs veh, ZRANB3 / RFU, CUL4A / Fold change vs veh, CUL4A / RFU, CCNY / Fold change vs veh, CCNY / RFU, UFL1 / Fold change vs veh, UFL1 / RFU, COG3 / Fold change vs veh, COG3 / RFU, DIAPH2 / Fold change vs veh, DIAPH2 / RFU, SKA2 / Fold change vs veh, SKA2 / RFU, AFF3 / Fold change vs veh, AFF3 / RFU, LMF1 / Fold change vs veh, LMF1 / RFU, IPO11 / Fold change vs veh, IPO11 / RFU, DFFB / Fold change vs veh, DFFB / RFU, FOXP1 / Fold change vs veh, FOXP1 / RFU, CARD8 / Fold change vs veh, CARD8 / RFU, STRN3 / Fold change vs veh, STRN3 / RFU, ADK / Fold change vs veh, ADK / RFU, RASSF2 / Fold change vs veh, RASSF2 / RFU, WIPF1 / Fold change vs veh, WIPF1 / RFU, LARP1B / Fold change vs veh, LARP1B / RFU, RASA1 / Fold change vs veh, RASA1 / RFU, RB1 / Fold change vs veh, RB1 / RFU, PPFIA1 / Fold change vs veh, PPFIA1 / RFU, MAT2A / Fold change vs veh, MAT2A / RFU, CCT5 / Fold change vs veh, CCT5 / RFU, WDR92 / Fold change vs veh, WDR92 / RFU, CUX1 / Fold change vs veh, CUX1 / RFU, TTC7A / Fold change vs veh, TTC7A / RFU, TMEM135 / Fold change vs veh, TMEM135 / RFU, DEPTOR / Fold change vs veh, DEPTOR / RFU, CPM / Fold change vs veh, CPM / RFU, DNAJB6 / Fold change vs veh, DNAJB6 / RFU, CACNA2D3 / Fold change vs veh, CACNA2D3 / RFU, DTX4 / Fold change vs veh, DTX4 / RFU, TFCP2 / Fold change vs veh, TFCP2 / RFU, GMCL1 /// GMCL1P1 / Fold change vs veh, GMCL1 /// GMCL1P1 / RFU, AEBP2 / Fold change vs veh, AEBP2 / RFU, SNHG1 /// SNORD22 /// SNORD25 /// SNORD26 /// SNORD27 /// SNORD28 /// SNORD29 /// SNORD31 / Fold change vs veh, SNHG1 /// SNORD22 /// SNORD25 /// SNORD26 /// SNORD27 /// SNORD28 /// SNORD29 /// SNORD31 / Fold change (Aza/veh), C12orf56 (ProbeSet 11735607_a_at) / Fold change (ACY-1035/veh), C12orf56 (ProbeSet 11735607_a_at) / Fold change (Aza/veh), FGFR1OP (ProbeSet 11751329_s_at) / Fold change (ACY-1035/veh), FGFR1OP (ProbeSet 11751329_s_at) / Fold change (Aza/veh), VPS36 (ProbeSet 11739960_a_at) / Fold change (ACY-1035/veh), VPS36 (ProbeSet 11739960_a_at) / RFU SYPL1 (11715823_x_at) / Fold change /veh SYPL1 (11715823_x_at) / RFU IGFBP7 (11715501_s_at) / Fold change /veh IGFBP7 (11715501_s_at) / RFU REEP3 (11722064_at) / Fold change /veh REEP3 (11722064_at) / RFU IGLL1 (11728026_x_at) / Fold change /veh IGLL1 (11728026_x_at): dose or concentration left out as unconfirmed
Conditions: MV-4-11 cells, 48 hours

Nc1ccc(-c2cccs2)cc1NC(=O)c1ccc2c(c1)cc(C1CC1)n2CCN1CCOCC1 [ACY-1035]
RFU FAM26E (11764081_at): 5.59 RFU

From paper PMC5218480 (PLoS ONE, 2017)
